The values below are quoted from earlier work in US12246076B2, “Radiolabeled compounds for in vivo imaging of gastrin-releasing peptide receptor (GRPR) and treatment of GRPR-related disorders” (PROVINCIAL HEALTH SERVICES AUTHORITY, priority 2022, dated 2025).

The target of this data set is T1, GRPR (Homo sapiens, UniProt P30550).
T1 construct: endogenous in cells; host or cells: PC-3 prostate cancer cells
The settings on record: literature (Heimbrook 1991; Lin 1995); cited from earlier work.

T1 sequence (P30550 whole entry): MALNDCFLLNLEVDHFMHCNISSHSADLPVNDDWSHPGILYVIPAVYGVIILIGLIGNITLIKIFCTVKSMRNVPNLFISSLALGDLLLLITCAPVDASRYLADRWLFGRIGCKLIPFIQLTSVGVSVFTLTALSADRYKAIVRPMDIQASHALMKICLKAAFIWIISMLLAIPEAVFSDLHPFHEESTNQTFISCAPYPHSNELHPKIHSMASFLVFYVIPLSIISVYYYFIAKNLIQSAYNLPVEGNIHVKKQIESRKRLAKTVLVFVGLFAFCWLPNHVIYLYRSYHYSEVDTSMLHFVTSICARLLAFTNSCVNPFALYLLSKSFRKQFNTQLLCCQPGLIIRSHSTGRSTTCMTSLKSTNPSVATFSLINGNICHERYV

For litorin, the “binding affinity to the GRPR” value is “very strong binding affinity”.
